We go through two compounds from US5491155A, “Substituted thiadiazoles, compositions containing them and their use as antimicrobial and marine antifouling agents” (The Dow Chemical Company, priority 1994, dated 1996).

Structures are written as SMILES. In brackets after ≈: the same amount, converted by molar mass. Like-named read-outs stand apart in the source and are kept apart here.

One experiment concerns Bacillus subtilis. Briefly: MIC in nutrient agar, Bacillus subtilis. Type of experiment: cell-based, Bacillus subtilis (ATCC 8473). Conditions: Bs, 48 hours, read-out: Minimum Inhibitory Concentration (MIC). How it is done:
(§1) The minimum inhibitory concentration (MIC) for the compounds listed in Table I is determined for bacteria, using nutrient agar, and 7 yeast and fungi, using malt yeast agar. A one percent solution of the test compound is prepared in a mixture of acetone and water.
(§2) Nutrient agar is prepared at pH 6.8, representing a neutral medium, and at pH 8.2, representing an alkaline medium. The nutrient agars are prepared by adding 23 g of nutrient agar to one-liter of deionized water. In addition, the alkaline medium is prepared by adjusting a 0.04M solution of N-(tris-(hydroxymethyl)methyl)glycine buffered deionized water with concentrated sodium hydroxide to a pH of 8.5.
(§3) The test tubes containing the agar are cooled in a water bath until the temperature of the agar is 48° C. Then, an appropriate amount of the one percent solution of the test compound is added (except in the controls where no compound is added) to the respective test tubes so that the final concentrations are 500, 250, 100, 50, 25, 10, 2.5, 1.0 and zero parts per million of the test compound in the agar, thus having a known concentration of test compound dispersed therein. The contents of the test tubes are then transferred to respective petri plates. After drying for 24 hours, the petri plates containing nutrient agar are inoculated with bacteria and those containing malt yeast agar are inoculated with yeast and fungi.
(§4) The inoculation with bacteria is accomplished by using the following procedure. Twenty-four hour-cultures of each of the bacteria are prepared by incubating the respective bacteria in tubes containing nutrient broth for 24 hours at 30° C. in a shaker. Dilutions of each of the 24 hour-cultures are made so that nine separate suspensions (one for each of the nine test bacteria) are made, each containing 10^8 colony forming units (CFU) per mL of suspension of a particular bacteria. Aliquots of 0.3 mL of each of the bacterial suspensions are used to fill the individual wells of Steer's Replicator. For each microbial suspension, 0.3 mL was used to fill three wells (i.e., three wells of 0.3 mL each) so that for the nine different bacteria, 27 wells are filled. The Steer's Replicator is then used to inoculate both the neutral and alkaline pH nutrient agar petri plates.
(§5) The inoculated petri plates are incubated at 30° C. for 48 hours and then read to determine if the test compound which is incorporated into the agar prevented growth of the respective bacteria.
(§6) Table II lists the bacteria, yeast and fungi used in the MIC test described above along with their respective American Type Culture Collection (ATCC) identification numbers.
(§7) In Tables III and IV, the MIC values of the compounds described in Table I as compared to the MIC of a standard commercial preservative (with 1-(3-chloroalkyl)-3,5,7-triaza-1-azoniaadamantane chloride as the active agent and referred to in Tables III and IV as "STANDARD I") are set forth for the bacteria organisms and yeast/fungi organisms which are listed in Table II.

Another experiment relates to Penicillium chrysogenum. Briefly: MIC in malt yeast agar, Penicillium chrysogenum. Type of experiment: cell-based, Penicillium chrysogenum (ATCC 9480). Conditions: Pc; malt yeast agar; 30° C.; 72 hours for fungi; read-out: Minimum Inhibitory Concentration (MIC). How it is done: as §1
(§8) Malt yeast agar is prepared by adding 3 g yeast extract and 45 g malt agar per liter of deionized water. The specific agar is dispensed in 30 mL aliquots into 25×200 mm test tubes, capped and autoclaved for 15 minutes at 115° C.
as §3
(§9) The inoculation with the yeast and fungi is accomplished as follows. Cultures of yeast and fungi are incubated for seven days on malt yeast agar at 30° C. These cultures are used to prepare suspensions by the following procedure. A suspension of each organism is prepared by adding 10 mL of sterile saline and 10 microliters of octylphenoxy polyethoxy ethanol to the agar slant of yeast or fungi. The sterile saline/octylphenoxy polyethoxy ethanol solution is then agitated with a sterile swab to suspend the microorganism grown on the slant. Each resulting suspension is diluted into sterile saline (1 part suspension: 9 parts sterile saline). Aliquots of these dilutions are placed in individual wells of Steer's Replicator and petri plates inoculated as previously described. The petri plates are incubated at 30° C. and read after 48 hours for yeast and 72 hours for fungi.
as §6, §7

The test system of a further experiment is Trichoderma viride. Briefly: MIC in malt yeast agar, Trichoderma viride. Type of experiment: cell-based, Trichoderma viride (ATCC 8678). Conditions: Tv; malt yeast agar; 30° C.; 72 hours for fungi; read-out: Minimum Inhibitory Concentration (MIC). How it is done: as §1, §8, §3, §9, §6, §7
Another experiment concerns Staphylococcus aureus. Briefly: MIC in nutrient agar, Staphylococcus aureus. The following applies: Sa, 48 hours, read-out: Minimum Inhibitory Concentration (MIC). Format: cell-based, Staphylococcus aureus (ATCC 6538). How it is done: as §1, §2, §3, §4, §5, §6, §7
A further experiment has as its system Salmonella choleraesuis. Nature of the experiment: MIC in nutrient agar, Salmonella choleraesuis. Type of experiment: cell-based, Salmonella choleraesuis (ATCC 10708). The following applies: Salmonella enterica, Sc, 48 hours, read-out: Minimum Inhibitory Concentration (MIC). How it is done: as §1, §2, §3, §4, §5, §6, §7
The subject of another experiment is Escherichia coli. Briefly: MIC in nutrient agar, Escherichia coli. Conditions: Ec, 48 hours, read-out: Minimum Inhibitory Concentration (MIC). Format: cell-based, Escherichia coli (ATCC 11229). How it is done:
as §1, §2, §3, §4, §5, §6, §7

The subject of a further experiment is Proteus vulgaris. Nature of the experiment: MIC in nutrient agar, Proteus vulgaris. Format: cell-based, Proteus vulgaris (ATCC 881). Conditions: Pv, 48 hours, read-out: Minimum Inhibitory Concentration (MIC). How it is done: as §1, §2, §3, §4, §5, §6, §7
The test system of experiment [1] is Pseudomonas aeruginosa (PRD-10). Briefly: MIC in nutrient agar, Pseudomonas aeruginosa (PRD-10). Type of experiment: cell-based, Pseudomonas aeruginosa (ATCC 15442). The following applies: PRD, 48 hours, read-out: Minimum Inhibitory Concentration (MIC). How it is done: as §1, §2, §3, §4, §5, §6, §7
A further experiment concerns Saccharomyces cerevisiae. Briefly: MIC in malt yeast agar, Saccharomyces cerevisiae. The following applies: Sc, malt yeast agar, 30° C., 48 hours for yeast, read-out: Minimum Inhibitory Concentration (MIC). Format: cell-based, Saccharomyces cerevisiae (ATCC 4105). How it is done: as §1, §8, §3, §9, §6, §7
For another experiment, the system named is Klebsiella pneumonias. Nature of the experiment: MIC in nutrient agar, Klebsiella pneumonias. Format: cell-based, Klebsiella pneumonias (ATCC 8308). The following applies: Kp, 48 hours, read-out: Minimum Inhibitory Concentration (MIC). How it is done:
as §1, §2, §3, §4, §5, §6, §7

The subject of the next experiment is Enterobacter aerogenes. Briefly: MIC in nutrient agar, Enterobacter aerogenes. Format: cell-based, Enterobacter aerogenes (ATCC 13048). The following applies: Klebsiella aerogenes, Ea, 30° C., 48 hours, read-out: Minimum Inhibitory Concentration (MIC). How it is done: as §1, §2, §3, §4, §5, §6, §7
For the next experiment, the system named is Candida albicans. Nature of the experiment: MIC in malt yeast agar, Candida albicans. The following applies: Ca; malt yeast agar; 30° C.; 48 hours for yeast; read-out: Minimum Inhibitory Concentration (MIC). Format: cell-based, Candida albicans (ATCC 10231). How it is done:
as §1, §8, §3, §9, §6, §7

Another experiment deals with Aureobasidium pullulan. Nature of the experiment: MIC in malt yeast agar, Aureobasidium pullulan. Format: cell-based, Aureobasidium pullulan (ATCC 16622). Conditions: Ap; malt yeast agar; 30° C.; 72 hours for fungi; read-out: Minimum Inhibitory Concentration (MIC). How it is done:
as §1, §8, §3, §9, §6, §7

The next experiment deals with Pseudomonas aeruginosa. Briefly: MIC in nutrient agar, Pseudomonas aeruginosa (Pa). Type of experiment: cell-based, Pseudomonas aeruginosa (ATCC 10145). The following applies: Pa, 48 hours, read-out: Minimum Inhibitory Concentration (MIC). How it is done:
as §1, §2, §3, §4, §5, §6, §7

A further experiment concerns Aspergillus niger. Briefly: MIC in malt yeast agar, Aspergillus niger. Type of experiment: cell-based, Aspergillus niger (ATCC 16404). Conditions: An; malt yeast agar; 30° C.; 72 hours for fungi; read-out: Minimum Inhibitory Concentration (MIC). How it is done: as §1, §8, §3, §9, §6, §7
The test system of the next experiment is Fusarium oxysporum. Briefly: MIC in malt yeast agar, Fusarium oxysporum. Type of experiment: cell-based, Fusarium oxysporum (ATCC 48112). Conditions: Fo; malt yeast agar; 30° C.; 72 hours for fungi; read-out: Minimum Inhibitory Concentration (MIC). How it is done:
as §1, §8, §3, §9, §6, §7

Consider `N#CSCSc1nsnc1Cl` [Example 3, 4-chloro-3-thiomethylthiocyanato-1,2,5,-thiadiazole], for which the MIC in the experiment on Bacillus subtilis (pH 6.8, 30° C.) is below 10 µg/mL; in the experiment on Bacillus subtilis (pH 8.2, 30° C.) it was 25 µg/mL (≈ 112 µM); in the experiment with Penicillium chrysogenum, below 10 µg/mL; in the experiment with Trichoderma viride, below 10 µg/mL; with Staphylococcus aureus (pH 6.8, 30° C.), 25 µg/mL (≈ 112 µM); with Staphylococcus aureus (pH 8.2, 30° C.), 50 µg/mL (≈ 223 µM). Further, the MIC is 25 µg/mL (≈ 112 µM) in the experiment on Salmonella choleraesuis (pH 6.8, 30° C.); 50 µg/mL (≈ 223 µM) in the experiment on Salmonella choleraesuis (pH 8.2, 30° C.); 25 µg/mL (≈ 112 µM) in the experiment on Escherichia coli (pH 6.8, 30° C.); 50 µg/mL (≈ 223 µM) with Escherichia coli (pH 8.2, 30° C.); below 10 µg/mL with Proteus vulgaris (pH 6.8, 30° C.); 25 µg/mL (≈ 112 µM) in the experiment on Proteus vulgaris (pH 8.2, 30° C.). Also, the MIC in [1] (pH 6.8, 30° C.) is below 10 µg/mL; in [1] (pH 8.2, 30° C.) it was 25 µg/mL (≈ 112 µM); with Saccharomyces cerevisiae, below 10 µg/mL; in the experiment with Klebsiella pneumonias (pH 6.8, 30° C.), 25 µg/mL (≈ 112 µM); in the experiment with Klebsiella pneumonias (pH 8.2, 30° C.) it was 50 µg/mL (≈ 223 µM); in the experiment with Enterobacter aerogenes (pH 6.8), 25 µg/mL (≈ 112 µM). Moreover, the MIC in the experiment with Enterobacter aerogenes (pH 8.2) was 100 µg/mL (≈ 447 µM); in the experiment on Candida albicans it was below 10 µg/mL; with Aureobasidium pullulan, below 10 µg/mL; with Pseudomonas aeruginosa (pH 6.8, 30° C.), 25 µg/mL (≈ 112 µM); in the experiment on Pseudomonas aeruginosa (pH 8.2, 30° C.) it was 100 µg/mL (≈ 447 µM); with Aspergillus niger, below 10 µg/mL. Further, in the experiment on Fusarium oxysporum, the MIC was below 10 µg/mL.
Consider `COc1nsnc1OCSC#N` [Example 7, 4-Methoxy-3-thiocyanato-methyloxo-1,2,5-thiadiazole], for which the MIC was below 10 µg/mL in the experiment on Bacillus subtilis (pH 6.8, 30° C.); below 10 µg/mL with Penicillium chrysogenum; 25 µg/mL (≈ 123 µM) in the experiment on Trichoderma viride; below 10 µg/mL with Staphylococcus aureus (pH 6.8, 30° C.); 25 µg/mL (≈ 123 µM) in the experiment on Salmonella choleraesuis (pH 6.8, 30° C.); 25 µg/mL (≈ 123 µM) in the experiment on Escherichia coli (pH 6.8, 30° C.). The MIC is below 10 µg/mL with Proteus vulgaris (pH 6.8, 30° C.); 25 µg/mL (≈ 123 µM) in experiment [1] (pH 6.8, 30° C.); below 10 µg/mL with Saccharomyces cerevisiae; below 10 µg/mL with Klebsiella pneumonias (pH 6.8, 30° C.); 25 µg/mL (≈ 123 µM) in the experiment with Enterobacter aerogenes (pH 6.8); 25 µg/mL (≈ 123 µM) with Candida albicans. For the same compound, the MIC with Aureobasidium pullulan was below 10 µg/mL; in the experiment with Pseudomonas aeruginosa (pH 6.8, 30° C.), below 10 µg/mL; in the experiment on Aspergillus niger, below 10 µg/mL; in the experiment with Fusarium oxysporum it was below 10 µg/mL.
